Results from patent publication US11964971B2, “Methods and compositions for modulating splicing” (Skyhawk Therapeutics, Inc., priority 2019, dated 2024).

Key:
[1] = system: MDR1-MDCK cell monolayers; details: dog, MDCK-MDR1, 120 min, 5 μM, pH 7.4
MDR1 = experiment: in vitro; details: dog; for Papp A→B at 120 min, 5 μM: MDCK-MDR1, pH 7.4, MDCK-MDR1: Papp A-B (10^−6, cm/s); for Papp B→A at 120 min, 5 μM: MDCK-MDR1, pH 7.4, MDCK-MDR1: Papp B-A (10^−6, cm/s)
SMN protein = SMN protein assay (MSD) in SMA patient fibroblasts (GM03813); format: cell-based, human
Method: Compounds are tested on spinal muscular atrophy (SMA) patient fibroblasts (GM03813, Coriell) at doses ranging from 2.5 μM to 0.6 nM. 7000 cells/well are seeded in 96-well plates. Compounds are incubated for 48 hours and the cells were lysed with 100 μL of lysis buffer. 20 μL of lysate is used for SMN protein measurement by Mesoscale Discovery (MSD) assay developed by PharmOptima (Michigan). A standard curve prepared with SMN protein ranging from […] is used in each MSD plate to calculate the absolute SMN protein amount in each sample.

MDR1 (P-gp) = experiment: MDCK-MDR1 permeability assay, blood-brain-barrier penetration potential; details: dog, MDCK-MDR1, pH 7.4, MDCK-MDR1 Efflux Ratio

Row | Structure (SMILES) | MDCK-MDR1: % Recov A-B (%) [1] | MDCK-MDR1: % Recov B-A (%) [1] | Papp A→B at 120 min, 5 μM (MDR1) | Papp B→A at 120 min, 5 μM (MDR1) | EC50 (SMN protein) | efflux ratio at 120 min, 5 μM (MDR1 (P-gp))
1 | Cn1cc(-c2cc(O)c(-c3cnc(N(C4CC4)[C@@H]4C[C@H]5CC[C@H](N5)[C@@H]4F)cn3)cc2F)cn1 [Compound 35E1, 2-(5-(cyclopropyl((1S,2S,3R,5R)-2-fluoro-8-azabicyclo[3.2.1]octan-3-yl)amino)pyrazin-2-yl)-4-fluoro-5-(1-methyl-1H-pyrazol-4-yl)phenol] | 36% | 62% | 3 ×10⁻⁶ cm/s | 17.9 ×10⁻⁶ cm/s | 501 to 10000 nM | 6
2 | COc1cc(-c2ccc(-c3cnc(N(C4CC4)[C@@H]4CC5CC[C@H](N5)[C@@H]4F)cn3)c(O)c2)ncn1 (single isomer, unassigned) [Compound 56E1] | 17% | 51% | 2.09 ×10⁻⁶ cm/s | 7.91 ×10⁻⁶ cm/s | 501 to 10000 nM | 4
3 | CN(c1cnc(-c2cc3ncn(CC(F)(F)F)c(=O)c3cc2O)cn1)[C@@H]1CC2CCC[C@H](N2)[C@@H]1F (single isomer, unassigned) [Compound 18E1] | 78% | 86% | 0.92 ×10⁻⁶ cm/s | 65.1 ×10⁻⁶ cm/s | 501 to 10000 nM | 71
4 | O=c1cc(-c2ccc(-c3cnc(N(C4CC4)[C@@H]4CC5CC[C@H](N5)[C@@H]4F)cn3)c(O)c2)ccn1CF (single isomer, unassigned) [Compound 54E1] | 64% | 70% | 1.92 ×10⁻⁶ cm/s | 43.4 ×10⁻⁶ cm/s | 501 to 10000 nM | 23
5 | Cn1cc(-c2ccc(-c3cnc(N(C4CC4)[C@H]4C[C@]5(C)CC[C@@](C)(N5)[C@H]4F)cn3)c(O)c2)cn1 [Compound 75E2, 2-(5-(cyclopropyl((1R,2S,3S,5S)-2-fluoro-1,5-dimethyl-8-azabicyclo[3.2.1]octan-3-yl)amino)pyrazin-2-yl)-5-(1-methyl-1H-pyrazol-4-yl)phenol] | 38% | 66% | 2.39 ×10⁻⁶ cm/s | 16.9 ×10⁻⁶ cm/s | 101 to 500 nM | 7
6 | CN(c1cnc(-c2ccc(-c3cc[nH]c(=O)c3)cc2O)cn1)[C@@H]1CC2COC[C@H](N2)[C@@H]1F (single isomer, unassigned) [Compound 82E1] | 83% | 87% | 0.51 ×10⁻⁶ cm/s | 39.2 ×10⁻⁶ cm/s | 501 to 10000 nM | 77
7 | Cn1ccc(-c2ccc(-c3cnc(N(C4CC4)[C@H]4C[C@@H]5CCC(N5)[C@H]4F)cn3)c(O)c2)cc1=O (single isomer, unassigned) [Compound 53E2] | 71% | 69% | 1.61 ×10⁻⁶ cm/s | 46.1 ×10⁻⁶ cm/s | 501 to 10000 nM | 29
8 | CN(c1cnc(-c2cc(F)c(-c3cn[nH]c3)cc2O)cn1)[C@@H]1CC2N[C@H](C1)CC2(F)F (single isomer, unassigned) [Compound 65E2] | 54% | 63% | 28.3 ×10⁻⁶ cm/s | 37.7 ×10⁻⁶ cm/s | 501 to 10000 nM | 1
9 | O=c1cc(-c2cc(O)c(-c3cnc(N(C4CC4)[C@H]4C[C@@H]5CCC(N5)[C@H]4F)cn3)cc2F)ccn1CF (single isomer, unassigned) [Compound 39E2] | 82% | 81% | 2.58 ×10⁻⁶ cm/s | 62 ×10⁻⁶ cm/s | 501 to 10000 nM | 24
10 | Oc1cc(-c2cn[nH]c2)ccc1-c1cnc(O[C@@H]2C[C@H]3CCC(N3)[C@@H]2F)cn1 (single isomer, unassigned) [Compound 1E2] | 66% | 79% | 7.49 ×10⁻⁶ cm/s | 40.1 ×10⁻⁶ cm/s | 501 to 10000 nM | 5
11 | Cc1noc(-c2ccc(-c3cnc(N(C)[C@H]4C[C@@H]5CCC(N5)[C@H]4F)cn3)c(O)c2)n1 (single isomer, unassigned) [Compound 70E2] |  |  |  |  | 101 to 500 nM | 
12 | Cc1noc(-c2ccc(-c3cnc(N(C)[C@@H]4CC5CC[C@H](N5)[C@@H]4F)cn3)c(O)c2)n1 (single isomer, unassigned) [Compound 70E1] |  |  |  |  | 501 to 10000 nM | 
13 | CN(c1cnc(-c2cc(F)c(C3=CC(F)NC(F)=C3)cc2O)cn1)[C@H]1C[C@]2(C)CC[C@@](C)(N2)[C@H]1F (single isomer, unassigned) [Compound 63E2] | 19% | 24% | 0.58 ×10⁻⁶ cm/s | 0.22 ×10⁻⁶ cm/s | 501 to 10000 nM | 
